Measurements as given in patent US20180000942A1, “COMPOSITIONS FOR DRUG ADMINISTRATION” (priority 2013, published 2018).
Values belong to the compound of their own block, whether it stands above or below them.

What was measured:
blood glucose [1] = assay: Insulin eye drops with […] and nose drops with 0.5% tetradecyl maltoside, blood glucose; assay type: in vivo, rat; settings: insulin nose drops with 0.5% tetradecyl maltoside added after 120 min
[2] = Bioavailability of antisense oligonucleotide given intrajejunally; assay type: in vivo, Cynomolgus monkeys; settings: AUC over 240 minutes relative to reference
Procedure: An approximately 7,000 Dalton antisense oligonucleotide (ASO) with a modified backbone (phosphorothioate oligonucleotide as described in U.S. Pat. No. 7,132,530) mixed with alkylglycoside tetradecyl-beta-D-maltoside (Intravail™), was administered to six Cynomolgus monkeys canulated into the jejunum at a dose of 10 mg/kg. The animals were fasted prior to administration. Test agents were dissolved in PBS buffer and injected through the cannula into the jejunum of each animal in a 1.5 mL volume or administered subcutaneously (s.c.) as noted in Table VIII.
The protocol involved a 3 way crossover in which each animal had the first 3 test agents in Table VIII administered on 3 different dates. There was a 1 week washout period between dosing dates. […] Analysis of the blood levels was conducted using quantitative analysis involving solid phase extraction using cationic polystyrene nanoparticles. […]
Quantitative analysis was performed with capillary gel electrophoresis of the extracted samples. […] Using the data obtained from CGE analysis, quantitation of phosphorothioate oligonucleotides was carried out. The amount of oligonucleotides in the samples (nON) was calculated using the following formula: […]
The relative bioavailabilities were determined as the ratio of each AUC divided by the AUC for the intravenously administered drug. […]

human nasal epithelium = assay: Irritation of nasal mucosa on daily intranasal administration; settings: […] in OTC nasal saline, 33 days
blood glucose [3] = assay: Insulin eye drops with absorption enhancer in xylazine/ketamine anesthetized rats, blood glucose
[4] = New Zealand White, rabbit, in vivo
in vivo = settings: other: buccal, 60 mg

Structure (SMILES): CCCCCCCCCCCCCCO[C@@H]1O[C@H](CO)[C@@H](O[C@H]2O[C@H](CO)[C@@H](O)[C@H](O)[C@H]2O)[C@H](O)[C@H]1O [Tetradecyl Maltoside, n-tetradecyl-4-O-α-D-glucopyranosyl-β-D-glucopyranoside]
Blood Glucose (blood glucose [1]; time 150 min): 74 mg/dL
Blood Glucose (blood glucose [1]; time 165 min): 76 mg/dL
Blood Glucose (blood glucose [1]; time 180 min): 68 mg/dL
Average Bioavailability (n = 6) [2]: up to 18%
irritation of the nasal mucosa (human nasal epithelium): no observable irritation
effect as absorption enhancer for ocular insulin (blood glucose lowering), in words (blood glucose [3]; 0.5% enhancer): effective
effect as absorption enhancer for ocular insulin (blood glucose lowering), in words (blood glucose [3]; […] enhancer): effective

time to maximal concentration versus tablets without alkyl saccharides [4]: approximately one half the time
Structure (SMILES): COc1ccc2[nH]cc(CCNC(C)=O)c2c1 [melatonin, 5-methoxy-N-acetyltryptamine]

bioavailability (in vivo): ≥ 4%
Structure (SMILES): O=C(c1ccc(OCCN2CCCCC2)cc1)c1c(-c2ccc(O)cc2)sc2cc(O)ccc12 [raloxifene, Raloxifene]
